Test results as given in patent US10124004B2, “Pyrido[3,4-d]pyrimidine derivative and pharmaceutically acceptable salt thereof” (Teijin Pharma Limited, priority 2015, dated 2018).

Legend:
CDK4/cyclin D3 = molecular target: T1, CDK4/cyclin D3 (Homo sapiens, UniProt P11802); assay: Human CDK4/cyclin D3 inhibitory activity (QS S Assist CDK4/Cyclin D3_FP Kit, IMAP fluorescence polarization); assay type: biochemical; settings: Human CDK4/cyclin D3 inhibitory activity; read-out: CDK4 Activity symbol
T1 construct: purchased Carna Biosciences, Inc. QS S Assist CDK4/Cyclin D3_FP Kit
Summary of the method: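 Percent inhibition, relative to DMSO with and without enzyme, was curve-fitted to give IC50 from polarization (ex 485, em 535 nm). The 45-min room-temperature reaction used 12.5-25 ng/well enzyme, kit ATP/substrate/metal mix, and HEPES pH 7.4 buffer with Tween20 and DTT, followed by 30-min IMAP binding in the dark.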

CDK2/cyclin A2 = molecular target: T2, CDK2/cyclin A2 (Homo sapiens, UniProt P24941); assay: Human CDK2/cyclin A2 inhibitory activity (QS S Assist CDK2/Cyclin A2_FP Kit, IMAP fluorescence polarization); assay type: biochemical; settings: Human CDK2/cyclin A2 inhibitory activity; read-out: CDK2 Activity symbol
T2 construct: purchased Carna Biosciences, Inc. QS S Assist CDK2/Cyclin A2_FP Kit
Summary of the method: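 Kinase activity read as fluorescence polarization (485/535 nm) after phosphorylated fluorescent substrate binds IMAP reagent (30 min, RT, dark). Enzyme (2.5 ng/well) reacted 60 min at RT with ATP/substrate/metal in HEPES pH 7.4 buffer with Tween 20 and DTT; no-enzyme wells define 0% activity; IC50 by curve fit.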

T1 sequence (P11802 whole entry): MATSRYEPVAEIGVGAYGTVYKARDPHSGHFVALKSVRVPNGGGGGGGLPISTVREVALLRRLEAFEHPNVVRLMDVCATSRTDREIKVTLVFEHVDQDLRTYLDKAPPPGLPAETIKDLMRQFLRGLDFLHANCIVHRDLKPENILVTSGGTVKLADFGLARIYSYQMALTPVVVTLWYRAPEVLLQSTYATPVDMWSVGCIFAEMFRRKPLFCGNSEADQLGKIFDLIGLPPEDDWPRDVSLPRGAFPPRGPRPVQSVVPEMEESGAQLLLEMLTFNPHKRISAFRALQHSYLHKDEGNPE
T1 sequence (P30281 whole entry partner): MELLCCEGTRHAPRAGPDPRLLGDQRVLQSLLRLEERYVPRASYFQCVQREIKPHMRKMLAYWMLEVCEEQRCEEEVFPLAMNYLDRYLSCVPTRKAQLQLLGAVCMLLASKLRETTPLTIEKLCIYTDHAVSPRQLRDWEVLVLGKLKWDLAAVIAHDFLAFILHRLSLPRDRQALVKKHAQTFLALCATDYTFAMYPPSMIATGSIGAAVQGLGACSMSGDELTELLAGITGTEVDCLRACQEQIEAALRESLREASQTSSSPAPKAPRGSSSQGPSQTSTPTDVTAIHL

CC(C)Nc1nc(C(F)F)cc2cnc(Nc3ccc(CN4CCC(CO)CC4)cn3)nc12 [Compound 147]
IC50 (CDK4/cyclin D3): < 10 nM | IC50 (CDK2/cyclin A2): 10 to 100 nM

CC(C)Nc1nc(C(F)F)cc2cnc(Nc3ccc(CN(C[C@H]4CCCO4)S(C)(=O)=O)cn3)nc12 [Compound 148]
IC50 (CDK4/cyclin D3): 10 to 100 nM | IC50 (CDK2/cyclin A2): ≥ 100 nM

CC(C)Nc1nc(C(F)F)cc2cnc(Nc3ccc(CN(C[C@@H]4CCCO4)S(C)(=O)=O)cn3)nc12 [Compound 149]
IC50 (CDK4/cyclin D3): 10 to 100 nM | IC50 (CDK2/cyclin A2): ≥ 100 nM

CC(=O)NCCc1ccc(Nc2ncc3cc(C(F)F)nc(NC(C)C)c3n2)nc1 [Compound 150]
IC50 (CDK4/cyclin D3): < 10 nM | IC50 (CDK2/cyclin A2): 10 to 100 nM

CC(C)Nc1nc(C(F)F)cc2cnc(Nc3ccc(CCNS(C)(=O)=O)cn3)nc12 [Compound 151]
IC50 (CDK4/cyclin D3): < 10 nM | IC50 (CDK2/cyclin A2): 10 to 100 nM

CC(=O)NCCCc1ccc(Nc2ncc3cc(C(F)F)nc(NC(C)C)c3n2)nc1 [Compound 152]
IC50 (CDK4/cyclin D3): < 10 nM | IC50 (CDK2/cyclin A2): 10 to 100 nM

CC(C)Nc1nc(C(F)F)cc2cnc(Nc3ccc(CCCNS(C)(=O)=O)cn3)nc12 [Compound 153]
IC50 (CDK4/cyclin D3): < 10 nM | IC50 (CDK2/cyclin A2): 10 to 100 nM

CC(C)Nc1nc(C(F)F)cc2cnc(Nc3ccc(CCC(C)(C)O)cn3)nc12 [Compound 154]
IC50 (CDK4/cyclin D3): < 10 nM | IC50 (CDK2/cyclin A2): ≥ 100 nM

CC(C)Nc1nc(C(F)F)cc2cnc(Nc3ccc(OCCO)cn3)nc12 [Compound 155]
IC50 (CDK4/cyclin D3): < 10 nM | IC50 (CDK2/cyclin A2): 10 to 100 nM

CC(C)Nc1nc(C(F)F)cc2cnc(Nc3ccc(OCCCO)cn3)nc12 [Compound 156]
IC50 (CDK4/cyclin D3): < 10 nM | IC50 (CDK2/cyclin A2): ≥ 100 nM

Cc1ccc(Nc2ncc3cc(C(F)F)nc(NC(C)C)c3n2)nc1 [Compound 157]
IC50 (CDK4/cyclin D3): 10 to 100 nM | IC50 (CDK2/cyclin A2): ≥ 100 nM

Cc1nnc(NCc2ccc(Nc3ncc4cc(C(F)F)nc(NC(C)C)c4n3)nc2)[nH]1 [Compound 158]
IC50 (CDK4/cyclin D3): 10 to 100 nM | IC50 (CDK2/cyclin A2): ≥ 100 nM

CC(C)Nc1nc(C(F)F)cc2cnc(Nc3ccc(C4CCS(=O)(=O)CC4)cn3)nc12 [Compound 159]
IC50 (CDK4/cyclin D3): < 10 nM | IC50 (CDK2/cyclin A2): ≥ 100 nM

CC(C)Nc1nc(C(F)F)cc2cnc(Nc3ccc(C4CCOCC4=O)cn3)nc12 (stereo not drawn) [Compound 161]
IC50 (CDK4/cyclin D3): < 10 nM | IC50 (CDK2/cyclin A2): 10 to 100 nM

CC(C)Nc1nc(C(F)F)cc2cnc(Nc3ccc(CN(C4CCOC4)S(C)(=O)=O)cn3)nc12 (stereo not drawn) [Compound 162]
IC50 (CDK4/cyclin D3): 10 to 100 nM | IC50 (CDK2/cyclin A2): ≥ 100 nM

CC(C)Nc1nc(C(F)F)cc2cnc(Nc3ncc(N4CCNCC4)cn3)nc12 [Compound 163]
IC50 (CDK4/cyclin D3): < 10 nM | IC50 (CDK2/cyclin A2): ≥ 100 nM

CC(C)Nc1nc(C(F)F)cc2cnc(Nc3ccc(CCCO)cn3)nc12 [Compound 164]
IC50 (CDK4/cyclin D3): < 10 nM | IC50 (CDK2/cyclin A2): 10 to 100 nM

CC(C)Nc1nc(C(F)F)cc2cnc(Nc3ccc(CN4CCCC4=O)cn3)nc12 [Compound 165]
IC50 (CDK4/cyclin D3): < 10 nM | IC50 (CDK2/cyclin A2): ≥ 100 nM

CC(C)Nc1nc(C(F)F)cc2cnc(Nc3ccc(CN4CCOCC4=O)cn3)nc12 [Compound 166]
IC50 (CDK4/cyclin D3): < 10 nM | IC50 (CDK2/cyclin A2): 10 to 100 nM

CC(C)Nc1nc(C(F)F)cc2cnc(Nc3ccc(CCCN4CCCC4=O)cn3)nc12 [Compound 167]
IC50 (CDK4/cyclin D3): < 10 nM | IC50 (CDK2/cyclin A2): ≥ 100 nM

CC(C)Nc1nc(C(F)F)cc2cnc(Nc3ccc(CCCN4CCOCC4=O)cn3)nc12 [Compound 168]
IC50 (CDK4/cyclin D3): < 10 nM | IC50 (CDK2/cyclin A2): 10 to 100 nM

CC(C)Nc1nc(C(F)F)cc2cnc(Nc3ccc(C(=O)N4CCOCC4)cn3)nc12 [Compound 169]
IC50 (CDK4/cyclin D3): < 10 nM | IC50 (CDK2/cyclin A2): 10 to 100 nM

CC(C)Nc1nc(C(F)F)cc2cnc(Nc3ccc(CCCN4CCCCS4(=O)=O)cn3)nc12 [Compound 170]
IC50 (CDK4/cyclin D3): < 10 nM | IC50 (CDK2/cyclin A2): ≥ 100 nM

CC(C)Nc1nc(C(F)F)cc2cnc(Nc3ccc(N4CCC(O)CC4)nn3)nc12 [Compound 171]
IC50 (CDK4/cyclin D3): < 10 nM | IC50 (CDK2/cyclin A2): 10 to 100 nM

CO[C@H](C)c1cc2cnc(Nc3ccc(CN4CCOCC4)cn3)nc2c(NC(C)C)n1 [Compound 172]
IC50 (CDK4/cyclin D3): 10 to 100 nM | IC50 (CDK2/cyclin A2): ≥ 100 nM

CC(C)Nc1nc(C(F)F)cc2cnc(Nc3ccc(CN4CCOCCC4=O)cn3)nc12 [Compound 173]
IC50 (CDK4/cyclin D3): < 10 nM | IC50 (CDK2/cyclin A2): 10 to 100 nM

CC(C)Nc1nc(C(F)F)cc2cnc(Nc3ccc(CN4CCNC(C)(C)C4)cn3)nc12 [Compound 174]
IC50 (CDK4/cyclin D3): < 10 nM | IC50 (CDK2/cyclin A2): 10 to 100 nM

CC(C)Nc1nc(C(F)F)cc2cnc(Nc3ccc(CN4CCNC5(CC5)C4)cn3)nc12 [Compound 175]
IC50 (CDK4/cyclin D3): < 10 nM | IC50 (CDK2/cyclin A2): 10 to 100 nM

CO[C@H](C)c1cc2cnc(Nc3ccc(CN4CCNC(=O)C4)cn3)nc2c(NC(C)C)n1 [Compound 176]
IC50 (CDK4/cyclin D3): 10 to 100 nM | IC50 (CDK2/cyclin A2): ≥ 100 nM

CC(C)Nc1nc(C(F)F)cc2cnc(Nc3ccc(CN4CCCCC4)cn3)nc12 [Compound 177]
IC50 (CDK4/cyclin D3): < 10 nM | IC50 (CDK2/cyclin A2): 10 to 100 nM

CC(=O)N1CCC(c2ccc(Nc3ncc4cc(C(F)F)nc(NC(C)C)c4n3)nc2)CC1 [Compound 178]
IC50 (CDK4/cyclin D3): < 10 nM | IC50 (CDK2/cyclin A2): ≥ 100 nM

CC(C)Nc1nc(C(F)F)cc2cnc(Nc3ccc(C4CCN(S(C)(=O)=O)CC4)cn3)nc12 [Compound 179]
IC50 (CDK4/cyclin D3): 10 to 100 nM | IC50 (CDK2/cyclin A2): ≥ 100 nM

COCC(C)(C)Nc1nc([C@@H](C)O)cc2cnc(Nc3ccc(CN4CCOCC4)cn3)nc12 [Compound 180]
IC50 (CDK4/cyclin D3): 10 to 100 nM | IC50 (CDK2/cyclin A2): ≥ 100 nM

CC(C)Nc1nc(C(F)F)cc2cnc(Nc3ccc(N4CCNC(C)(C)C4)cn3)nc12 [Compound 181]
IC50 (CDK4/cyclin D3): < 10 nM | IC50 (CDK2/cyclin A2): 10 to 100 nM

COCC(C)(C)Nc1nc([C@@H](C)O)cc2cnc(Nc3ccc(CN4CCNC(=O)C4)cn3)nc12 [Compound 182]
IC50 (CDK4/cyclin D3): 10 to 100 nM | IC50 (CDK2/cyclin A2): ≥ 100 nM

CC(C)Nc1nc(C(F)F)cc2cnc(Nc3ccc(N4C[C@H](O)CC4=O)cn3)nc12 [Compound 183]
IC50 (CDK4/cyclin D3): < 10 nM | IC50 (CDK2/cyclin A2): 10 to 100 nM

CC(C)Nc1nc(C(F)F)cc2cnc(Nc3ccc(N4C[C@@H](O)CC4=O)cn3)nc12 [Compound 184]
IC50 (CDK4/cyclin D3): < 10 nM | IC50 (CDK2/cyclin A2): 10 to 100 nM

CC(C)Nc1nc(C(F)F)cc2cnc(Nc3ccc(CN(C)C(N)=O)cn3)nc12 [Compound 185]
IC50 (CDK4/cyclin D3): < 10 nM | IC50 (CDK2/cyclin A2): 10 to 100 nM

CCNC(=O)NCc1ccc(Nc2ncc3cc(C(F)F)nc(NC(C)C)c3n2)nc1 [Compound 186]
IC50 (CDK4/cyclin D3): 10 to 100 nM | IC50 (CDK2/cyclin A2): ≥ 100 nM

CC(C)Nc1nc(C(F)F)cc2cnc(Nc3ccc(CNS(N)(=O)=O)cn3)nc12 [Compound 187]
IC50 (CDK4/cyclin D3): 10 to 100 nM | IC50 (CDK2/cyclin A2): ≥ 100 nM

CC(C)Nc1nc(C(F)F)cc2cnc(Nc3ccc(-c4cnn(C)c4)cn3)nc12 [Compound 188]
IC50 (CDK4/cyclin D3): 10 to 100 nM | IC50 (CDK2/cyclin A2): ≥ 100 nM

CC(C)Nc1nc(C(F)F)cc2cnc(Nc3ccc(CN4CCCC4C(=O)O)cn3)nc12 (stereo not drawn) [Compound 189]
IC50 (CDK4/cyclin D3): < 10 nM | IC50 (CDK2/cyclin A2): 10 to 100 nM

CC(C)Nc1nc(C(F)F)cc2cnc(Nc3ccc(CN4CCC(C(=O)O)C4)cn3)nc12 (stereo not drawn) [Compound 190]
IC50 (CDK4/cyclin D3): < 10 nM | IC50 (CDK2/cyclin A2): 10 to 100 nM

CC(C)Nc1nc(C(F)F)cc2cnc(Nc3ccc(N4CCC(C(C)(C)O)CC4)nn3)nc12 [Compound 191]
IC50 (CDK4/cyclin D3): < 10 nM | IC50 (CDK2/cyclin A2): 10 to 100 nM

CO[C@H](C)c1cc2cnc(Nc3ccc(CCCN4CCOCC4=O)cn3)nc2c(NC(C)C)n1 [Compound 192]
IC50 (CDK4/cyclin D3): 10 to 100 nM | IC50 (CDK2/cyclin A2): ≥ 100 nM

COCC(C)(C)Nc1nc([C@@H](C)O)cc2cnc(Nc3ccc(CCCN4CCOCC4=O)cn3)nc12 [Compound 193]
IC50 (CDK4/cyclin D3): 10 to 100 nM | IC50 (CDK2/cyclin A2): ≥ 100 nM

CC(C)Nc1nc(C(F)F)cc2cnc(Nc3ccc(CN4CCCCC4C(=O)O)cn3)nc12 (stereo not drawn) [Compound 194]
IC50 (CDK4/cyclin D3): < 10 nM | IC50 (CDK2/cyclin A2): 10 to 100 nM

COCC(C)(C)Nc1nc([C@@H](C)O)cc2cnc(Nc3ccc(N4CCNCC4)cn3)nc12 [Compound 195, (R)-1-(8-(l-methoxy-2-methylpropan-2-ylamino)-2-(5-(piperazin-1-yl)pyridin-2-ylamino)pyrido[3,4-d]pyrimidin-6-yl)ethanol]
IC50 (CDK4/cyclin D3): < 10 nM | IC50 (CDK2/cyclin A2): ≥ 100 nM

COCC(C)(C)Nc1nc([C@@H](C)O)cc2cnc(Nc3ccc(CN4CCC(C(C)(C)O)CC4)cn3)nc12 [Compound 196]
IC50 (CDK4/cyclin D3): < 10 nM | IC50 (CDK2/cyclin A2): ≥ 100 nM

COCC(C)(C)Nc1nc([C@@H](C)O)cc2cnc(Nc3ccc(CN4CCC(C(=O)O)CC4)cn3)nc12 [Compound 197]
IC50 (CDK4/cyclin D3): 10 to 100 nM | IC50 (CDK2/cyclin A2): ≥ 100 nM

COCC(C)(C)Nc1nc([C@@H](C)O)cc2cnc(Nc3ccc(CN4CCOCC4=O)cn3)nc12 [Compound 198]
IC50 (CDK4/cyclin D3): 10 to 100 nM | IC50 (CDK2/cyclin A2): ≥ 100 nM
